The test system of series [1] is STZ-induced diabetic mice. Kind of series: Vascular permeability by Evans blue tracer method in STZ mice. As to conditions: single intraocular injection 70 ng 32-134D. The class given is in vivo, mouse. How it is done: STZ-induced diabetes mouse model. 8-to-10 week-old male mice received an IP injection of STZ at 40 mg/kg of body weight in 0.1M of citrate buffer (pH 4.5) for 5 consecutive days. Normal chow and 10% sucrose water were provided during this period. 10% sucrose was discontinued and replaced with regular water on experimental day 6. […]
Intraocular injections. Intravitreal injections were performed with a PLI-100A Pico-liter Microinjector (Warner Instruments, Harvard Bioscience) using pulled-glass micropipettes. Each micropipette was calibrated to deliver a 1 μl volume on depression of a foot switch. […]
Images were captured with Zeiss fluorescent microscope. Eight fields per eye (2 fields per petal) including area of neovascularization were selected and fluorescence intensity was measured by ImageJ software. […]
The eyes were enucleated and immediately immersed in 4% (wt/vol) paraformaldehyde for 2 hours at room temperature. […] Images were captured by Zeiss fluorescent microscope or confocal microscopy and fluorescence was quantified by the image J software (National Institutes […]
of Health, Bethesda, MD). Blinded quantification of the number of leaking vessels was performed by manual counting of major leakage from capillaries from retinas of each group. […] Random fields were chosen from retinas where leakages were absent to determine baseline fluorescence that arise from capillaries. […]

Series [2] has as its system MIO-M1 cells. Kind of series: mRNA angiogenesis array (TaqMan Array qPCR) in MIO-M1 cells. The class given is cell-based, human. The method, then:
Angiogenesis array. Total RNA was isolated from MIO-MI cells (8 hours) and HUVECs (16 […]
cDNA was prepared with QuantiTect® Reverse Transcription Kit (Qiagen, Cat# 205311). RT-qPCR assay was performed with pre-configured TaqMan Array 96-Well FAST Plate for human angiogenic gene expression (Applied Biosystems, Inc) following the manufacture’s protocol. Each plate contains pre-defined genes including 18S, GAPDH and HPRT1 endogenous controls.
TaqMan Array plates were prepared by loading on each well 5 μl of cDNA sample (30 ng) with nuclease-free water and 5 μl of TaqMan™ Fast Advanced Master Mix (Applied Biosystem, Cat# […]
4444554). The reaction was performed using the QuantStudio™ 3 Flex Real‐Time PCR System as follows: 2 minutes at 50°C (stage 1); 10 minutes at 95°C (stage 2); 15 seconds at 95°C and 1 minutes at 60°C for 40 cycles (stage 3). The data were analyzed by using HPRT1 as endogenous […]
The clustering heatmaps were produced with “pheatmap” library in R with scale = row and clustering method = complete.
HUVEC cells, Euclidean distance was used to quantify the difference in qPCR screening. The Euclidean distance was calculated using “dist” function from R’s default stat library that measures
(In general: Real-time PCR tracks product formation cycle by cycle.)

The mark [3] stands for this setting: MIO-M1, hypoxia+32-134D, 8 hours, Figure 7G.

Turning to `Brc1ccc2c(-c3csc(-c4c[nH]c5c(Br)cccc45)n3)c[nH]c2c1` [32-134D, 4-(6-bromo-1H-indol-3-yl)-2-(7-bromo-1H-indol-3-yl)thiazole], in series [1], the “vascular hyperpermeability in STZ mice (in words)” value is recorded as “effectively inhibited vascular hyperpermeability”. Also, the “reduction in the Euclidean distance between control and hypoxic cell angiogenic gene expression” value in series [2] (MIO-M1, from 73 to 31) was 58%. Further, the “mRNA transcripts of angiogenic genes versus cells cultured in hypoxia (in words)” value in series [2] (MIO-M1, hypoxia + 32-134D) is given as “substantially reduced”. For the same compound, in series [2] (setting [3]), the “ANG,RNASE4, angiogenesis array expression (control = 1)” value is reported as 2.068; the “ANGPTL1, angiogenesis array expression (control = 1)” value is 0.8991; the “ANGPTL4, angiogenesis array expression (control = 1)” value is 30.9206; the “CDH5, angiogenesis array expression (control = 1)” value worked out at 0.6144. Moreover, in series [2] (setting [3]), the “CEACAM1, angiogenesis array expression (control = 1)” value is on record as 1.055; the “COL15A1, angiogenesis array expression (control = 1)” value turned out to be 1.01; the “CSF3, angiogenesis array expression (control = 1)” value turned out to be 0.9339; the “FIGF, angiogenesis array expression (control = 1)” value is on record as 1.127. In series [2] (setting [3]), the “HGF, angiogenesis array expression (control = 1)” value came to 0.5689; the “IL8, angiogenesis array expression (control = 1)” value is 1.45; the “TIMP2, angiogenesis array expression (control = 1)” value is given as 0.9298; the “TIMP3, angiogenesis array expression (control = 1)” value was determined as 0.7612. In addition, in series [2] (setting [3]), the “TNMD, angiogenesis array expression (control = 1)” value is given as 0.5729; the “TNNI1, angiogenesis array expression (control = 1)” value was 0.511; the “VEGFA, angiogenesis array expression (control = 1)” value is listed as 8.239.

These data come from paper PMC10313368 (The Journal of Clinical Investigation, 2023).
